Measurements as given in US20100093714A1, “AMIDES OF THIENO[2,3-d]PYRIMIDINE AND THEIR USE AS ADENOSINE A2a RECEPTOR ANTAGONISTS” (priority 2008, published 2010).
pKi: −log10 of the molar value.

Tests used:
[1] = target: T1, human adenosine A1 receptor (Homo sapiens, UniProt P30542); experiment: Adenosine A1 Receptor Functional Assay (A1GAL2); format: cell-based; conditions: CHO-K1 cells, cAMP inducible beta-galactosidase reporter, 4nM r-PIA/1 uM Forskolin agonist challenge
T1 construct: expressed in transfected cells; host or cells: CHO-K1
T1 sequence (P30542 1-326): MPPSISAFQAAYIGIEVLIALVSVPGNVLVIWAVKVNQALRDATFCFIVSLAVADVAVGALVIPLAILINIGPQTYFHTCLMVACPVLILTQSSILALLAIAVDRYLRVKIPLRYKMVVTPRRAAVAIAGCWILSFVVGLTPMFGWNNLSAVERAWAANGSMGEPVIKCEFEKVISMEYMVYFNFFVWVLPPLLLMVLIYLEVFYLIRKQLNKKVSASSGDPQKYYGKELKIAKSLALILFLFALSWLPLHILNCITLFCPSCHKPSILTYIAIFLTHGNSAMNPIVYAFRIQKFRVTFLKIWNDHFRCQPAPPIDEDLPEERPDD
Method: (§1) To initiate the functional assay, cryopreserved CHO-K1 cells overexpressing the human adenosine A1 receptor and containing a cAMP inducible beta-galactosidase reporter gene were thawed, centrifuged, DMSO containing media removed, and then seeded with fresh culture media into clear 384-well tissue culture treated plates (BD #353961) at a concentration of 10K cells/well. Prior to assay, these plates were cultured for two days at 37° C., 5% CO2, 90% Rh. On the day of the functional assay, culture media was removed and replaced with 45 uL assay medium (Hams/F-12 Modified (Mediatech #10-080CV) supplemented w/0.1% BSA). Test compounds were diluted and 11 point curves created at a 1000× concentration in 100% DMSO. Immediately after addition of assay media to the cell plates, 50 nL of the appropriate test compound antagonist or agonist control curves were added to cell plates using a Cartesian Hummingbird. Compound curves were allowed to incubate at room temperature on cell plates for approximately 15 minutes before addition of a 4nM r-PIA (Sigma P4532)/1 uM Forskolin (Sigma F3917) agonist challenge (5 uL volume). A control curve of r-PIA in 1 uM Forskolin, a DMSO/Media control, and a single dose of Forskolin were also included on each plate. After additions, cell plates were allowed to incubate at 37° C., 5% CO2, 90% Rh for 5.5-6 hours. After incubation, media was removed, and cell plates were washed 1×50 uL with DPBS w/o Ca & Mg (Mediatech 21-031-CV). Into dry wells, 20 uL of 1× Reporter Lysis Buffer (Promega E3971 (diluted in dH2O from 5× stock)) was added to each well and plates frozen at −20° C. overnight. For β-galactosidase enzyme calorimetric assay, plates were thawed out at room temperature and 20 μL 2× assay buffer (Promega) was added to each well. Color was allowed to develop at 37° C., 5% CO2, 90% Rh for 1-1.5 h or until reasonable signal appeared. The calorimetric reaction was stopped with the addition of 60 μL/well 1M sodium carbonate. Plates were counted at 405 nm on a SpectraMax Microplate Reader (Molecular Devices). Data was analyzed in Microsoft Excel and IC/EC50 curves were fit using a standardized macro.

[2] = target: T2, human adenosine A2a receptor (Homo sapiens, UniProt P29274); experiment: Adenosine A2a Receptor Functional Assay (A2AGAL2); format: cell-based; conditions: CHO-K1 cells, cAMP inducible beta-galactosidase reporter, 15 nM NECA agonist challenge
T2 construct: expressed in transfected cells; host or cells: CHO-K1
T2 sequence (P29274 whole entry): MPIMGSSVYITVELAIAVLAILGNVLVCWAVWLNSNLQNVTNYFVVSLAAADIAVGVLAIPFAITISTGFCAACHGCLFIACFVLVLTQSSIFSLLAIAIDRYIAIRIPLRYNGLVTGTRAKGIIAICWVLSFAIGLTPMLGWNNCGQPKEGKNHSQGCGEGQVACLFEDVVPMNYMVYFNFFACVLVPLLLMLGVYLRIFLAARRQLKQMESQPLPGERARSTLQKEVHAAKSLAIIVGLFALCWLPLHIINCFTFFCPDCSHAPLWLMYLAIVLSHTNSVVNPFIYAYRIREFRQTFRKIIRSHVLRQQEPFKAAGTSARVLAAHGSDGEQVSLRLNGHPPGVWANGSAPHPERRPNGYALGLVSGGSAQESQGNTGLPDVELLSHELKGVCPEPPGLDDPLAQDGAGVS
Method: as §1, with “A2a” for “A1”, “15 nM NECA” for “4nM r-PIA”, “E2387)” for “P4532)/1 uM Forskolin (Sigma F3917)”, “NECA,” for “r-PIA in 1 uM Forskolin,”, “Forskolin (Sigma F3917)” for “Forskolin”

[3] = target: T3, human A2a adenosine receptor (Homo sapiens, UniProt P29274); experiment: Ligand Binding Assay for Adenosine A2a Receptor (A2A-B); conditions: HEK293 cell plasma membrane, radioligand [3H]CGS21680
T3 construct: purchased PerkinElmer RB-HA2a; host or cells: HEK293 plasma membrane
T3 sequence (P29274 whole entry): as above
Method: Ligand binding assay of adenosine A2a receptor was performed using plasma membrane of HEK293 cells containing human A2a adenosine receptor (PerkinElmer, RB-HA2a) and radioligand [^3H]CGS21680 (PerkinElmer, NET1021). Assay was set up in 96-well polypropylene plate in total volume of 200 μL by sequentially adding 20 μL 1:20 diluted membrane, 130 μL assay buffer (50 mM Tris·HCl, pH7.4 10 mM MgCl2, 1 mM EDTA) containing [^3H] CGS21680, 50 μL diluted compound (4×) or vehicle control in assay buffer. Nonspecific binding was determined by […] NECA. Reaction was carried out at room temperature for 2 hours before filtering through 96-well GF/C filter plate pre-soaked in 50 mM Tris·HCl, pH7.4 containing 0.3% polyethylenimine. Plates were then washed 5 times with cold 50 mM Tris·HCl, pH7.4, dried and sealed at the bottom. Microscintillation fluid 30 μL was added to each well and the top sealed. Plates were counted on Packard Topcount for [^3H]. Data was analyzed in Microsoft Excel and GraphPad Prism programs. (Varani, K.; Gessi, S.; Dalpiaz, A.; Borea, P. A. British Journal of Pharmacology, 1996, 117, 1693)

Compound | pKi [1] | pKi [2] | pKi [3]
N#Cc1cccc(-c2nc(N)c3cc(C(=O)N4CCOCC4)sc3n2)c1 [Example 2, 3-[4-Amino-6-(morpholine-4-carbonyl)-thieno[2,3-d]pyrimidin-2-yl]-benzonitrile] | 6.05 | 7.42 | 7.66
Cc1csc(-c2nc(N)c3cc(C(=O)N4CCOCC4)sc3n2)n1 [Example 3, [4-Amino-2-(4-methyl-thiazol-2-yl)-thieno[2,3-d]pyrimidin-6-yl]-morpholin-4-yl-methanone] | 6.07 | 7.60 | 7.34
CC(C)c1ccc(-c2nc(N)c3cc(C(=O)N4CCOCC4)sc3n2)o1 [Example 30, [4-Amino-2-(5-isopropyl-furan-2-yl)-thieno[2,3-d]pyrimidin-6-yl]-morpholin-4-yl-methanone] | 6.28 | 6.63 | 
Cc1csc(-c2nc(N)c3cc(C(=O)N4CCN(c5nccs5)CC4)sc3n2)n1 [Example 33, [4-Amino-2-(4-methyl-thiazol-2-yl)-thieno[2,3-d]pyrimidin-6-yl]-(4-thiazol-2-yl-piperazin-1-yl)-methanone] | 6.01 | 7.09 | 

Further lines, results first:

pKi [1] | pKi [2] | pKi [3] | Compound
6.78 | 7.96 | 7.92 | Cc1ccc(-c2nc(N)c3cc(C(=O)N4CCOCC4)sc3n2)o1 [Example 5, [4-Amino-2-(5-methyl-furan-2-yl)-thieno[2,3-d]pyrimidin-6-yl]-morpholin-4-yl-methanone]
< 5.98 | 6.80 |  | Cc1csc(-c2nc(N)c3cc(C(=O)N4CCN(Cc5ccccn5)CC4)sc3n2)n1 [Example 28, [4-Amino-2-(4-methyl-thiazol-2-yl)-thieno[2,3-d]pyrimidin-6-yl]-(4-pyridin-2-ylmethyl-piperazin-1-yl)-methanone]
< 5.97 | 6.63 |  | Nc1nc(-c2ccc(C3CC3)o2)nc2sc(C(=O)N3CCOCC3)cc12 [Example 29, [4-Amino-2-(5-cyclopropyl-furan-2-yl)-thieno[2,3-d]pyrimidin-6-yl]-morpholin-4-yl-methanone]
< 5.98 | 5.91 |  | CC(C)(C)N1CCN(C(=O)c2cc3c(N)nc(-c4ccc(C5CC5)o4)nc3s2)CC1 [Example 32, [4-Amino-2-(5-cyclopropyl-furan-2-yl)-thieno[2,3-d]pyrimidin-6-yl]-(4-tert-butyl-piperazin-1-yl)-methanone]
